Values quoted from earlier work, collected in patent US20190105332A1, “METHODS OF TREATING PROSTATE CANCER” (Janssen Oncology, Inc., priority 2017, published 2019).
Where two headings read alike, the source gives them in different places.

How the values were obtained:
[1] = for activity of metabolite / share of exposure as circulating metabolite in human plasma: in vivo
[2] = not given; remark: listed apart in the source
[3] = not given; remark: listed apart in the source
[4] = end-stage renal disease on dialysis; single oral 1,000 mg dose
CYP3A4 [5] = target: T1, CYP3A4 (Homo sapiens, UniProt P08684); conditions: in vitro
CYP2D6 = target: T2, CYP2D6 (Homo sapiens, UniProt P10635); conditions: human hepatic microsomes
T2 construct: from tissue; host or cells: in vivo, trial participants (endogenous hepatic enzyme)

CYP2C9 = target: T3, CYP2C9 (Homo sapiens, UniProt P11712); conditions: human hepatic microsomes
T3 construct: In vitro studies with human hepatic microsomes; from tissue; host or cells: human hepatic microsomes

P-glycoprotein (P-gp) = P-glycoprotein (P-gp) (Homo sapiens, UniProt P08183); conditions: in vitro, clinically relevant concentrations
OATP1B1 = target: T4, OATP1B1 (Homo sapiens, UniProt Q9Y6L6); conditions: in vitro
T4 sequence (Q9Y6L6 1-691): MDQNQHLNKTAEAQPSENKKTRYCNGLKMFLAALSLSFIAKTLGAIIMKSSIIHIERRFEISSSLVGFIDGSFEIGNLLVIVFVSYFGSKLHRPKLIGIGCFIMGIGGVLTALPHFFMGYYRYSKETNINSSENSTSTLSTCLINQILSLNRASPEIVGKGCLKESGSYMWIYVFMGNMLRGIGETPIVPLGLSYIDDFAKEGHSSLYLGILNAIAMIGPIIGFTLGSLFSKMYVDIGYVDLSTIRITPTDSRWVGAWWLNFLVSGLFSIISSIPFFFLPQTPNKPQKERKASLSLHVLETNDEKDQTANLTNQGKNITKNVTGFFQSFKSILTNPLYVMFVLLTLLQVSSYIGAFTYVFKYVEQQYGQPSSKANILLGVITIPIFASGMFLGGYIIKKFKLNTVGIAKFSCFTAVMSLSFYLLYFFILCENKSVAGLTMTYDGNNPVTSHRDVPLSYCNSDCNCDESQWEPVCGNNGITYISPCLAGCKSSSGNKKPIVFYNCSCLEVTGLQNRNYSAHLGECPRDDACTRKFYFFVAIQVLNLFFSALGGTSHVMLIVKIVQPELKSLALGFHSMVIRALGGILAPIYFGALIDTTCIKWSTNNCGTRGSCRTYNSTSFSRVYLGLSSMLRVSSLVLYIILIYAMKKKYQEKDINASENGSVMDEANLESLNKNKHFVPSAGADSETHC

[6] = system: human plasma proteins, albumin and alpha-1 acid glycoprotein
[7] = system: primary human lymphocytes
[8] = rat micronucleus assay
CYP3A4 [9] = target: T1, CYP3A4; design: from tissue; host or cells: in vivo, healthy human subjects (endogenous enzyme); conditions: healthy subjects
CYP1A2 = target: T5, CYP1A2 (Homo sapiens, UniProt P05177); design: In vitro studies with human hepatic microsomes; from tissue; host or cells: human hepatic microsomes; conditions: human hepatic microsomes
T5 sequence (P05177 1-516): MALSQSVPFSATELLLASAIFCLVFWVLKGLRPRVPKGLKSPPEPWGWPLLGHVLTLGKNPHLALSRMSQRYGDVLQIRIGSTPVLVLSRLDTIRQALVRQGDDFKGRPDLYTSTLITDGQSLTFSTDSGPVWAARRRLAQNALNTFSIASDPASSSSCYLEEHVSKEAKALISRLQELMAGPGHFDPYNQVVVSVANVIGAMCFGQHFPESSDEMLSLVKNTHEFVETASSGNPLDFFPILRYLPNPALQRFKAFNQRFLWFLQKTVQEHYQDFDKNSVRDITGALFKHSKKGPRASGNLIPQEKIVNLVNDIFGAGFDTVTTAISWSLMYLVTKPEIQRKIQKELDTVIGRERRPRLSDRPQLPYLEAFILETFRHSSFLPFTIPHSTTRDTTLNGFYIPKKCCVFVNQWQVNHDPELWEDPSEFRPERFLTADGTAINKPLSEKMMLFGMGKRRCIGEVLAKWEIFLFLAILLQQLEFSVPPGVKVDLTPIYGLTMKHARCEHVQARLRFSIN

[10] = healthy subjects, single dose with high-fat (57% fat, 825 calories) meal
[11] = healthy subjects, single dose with low-fat meal (7% fat, 300 calories)

T1 sequence (P08684 whole entry): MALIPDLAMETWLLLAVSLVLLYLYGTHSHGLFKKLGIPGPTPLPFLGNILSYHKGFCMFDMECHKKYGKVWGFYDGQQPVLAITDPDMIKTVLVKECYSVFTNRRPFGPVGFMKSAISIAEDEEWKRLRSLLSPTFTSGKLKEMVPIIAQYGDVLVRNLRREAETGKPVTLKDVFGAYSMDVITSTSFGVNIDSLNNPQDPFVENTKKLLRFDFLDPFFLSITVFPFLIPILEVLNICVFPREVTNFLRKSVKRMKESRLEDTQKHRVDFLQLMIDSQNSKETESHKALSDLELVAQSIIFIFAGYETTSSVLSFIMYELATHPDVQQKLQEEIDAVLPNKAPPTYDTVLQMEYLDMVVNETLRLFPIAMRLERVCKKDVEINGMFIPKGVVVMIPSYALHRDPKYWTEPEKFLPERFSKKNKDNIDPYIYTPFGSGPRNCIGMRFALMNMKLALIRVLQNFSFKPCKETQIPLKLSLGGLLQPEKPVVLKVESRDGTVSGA
P-glycoprotein (P-gp), sequence (P08183 whole entry): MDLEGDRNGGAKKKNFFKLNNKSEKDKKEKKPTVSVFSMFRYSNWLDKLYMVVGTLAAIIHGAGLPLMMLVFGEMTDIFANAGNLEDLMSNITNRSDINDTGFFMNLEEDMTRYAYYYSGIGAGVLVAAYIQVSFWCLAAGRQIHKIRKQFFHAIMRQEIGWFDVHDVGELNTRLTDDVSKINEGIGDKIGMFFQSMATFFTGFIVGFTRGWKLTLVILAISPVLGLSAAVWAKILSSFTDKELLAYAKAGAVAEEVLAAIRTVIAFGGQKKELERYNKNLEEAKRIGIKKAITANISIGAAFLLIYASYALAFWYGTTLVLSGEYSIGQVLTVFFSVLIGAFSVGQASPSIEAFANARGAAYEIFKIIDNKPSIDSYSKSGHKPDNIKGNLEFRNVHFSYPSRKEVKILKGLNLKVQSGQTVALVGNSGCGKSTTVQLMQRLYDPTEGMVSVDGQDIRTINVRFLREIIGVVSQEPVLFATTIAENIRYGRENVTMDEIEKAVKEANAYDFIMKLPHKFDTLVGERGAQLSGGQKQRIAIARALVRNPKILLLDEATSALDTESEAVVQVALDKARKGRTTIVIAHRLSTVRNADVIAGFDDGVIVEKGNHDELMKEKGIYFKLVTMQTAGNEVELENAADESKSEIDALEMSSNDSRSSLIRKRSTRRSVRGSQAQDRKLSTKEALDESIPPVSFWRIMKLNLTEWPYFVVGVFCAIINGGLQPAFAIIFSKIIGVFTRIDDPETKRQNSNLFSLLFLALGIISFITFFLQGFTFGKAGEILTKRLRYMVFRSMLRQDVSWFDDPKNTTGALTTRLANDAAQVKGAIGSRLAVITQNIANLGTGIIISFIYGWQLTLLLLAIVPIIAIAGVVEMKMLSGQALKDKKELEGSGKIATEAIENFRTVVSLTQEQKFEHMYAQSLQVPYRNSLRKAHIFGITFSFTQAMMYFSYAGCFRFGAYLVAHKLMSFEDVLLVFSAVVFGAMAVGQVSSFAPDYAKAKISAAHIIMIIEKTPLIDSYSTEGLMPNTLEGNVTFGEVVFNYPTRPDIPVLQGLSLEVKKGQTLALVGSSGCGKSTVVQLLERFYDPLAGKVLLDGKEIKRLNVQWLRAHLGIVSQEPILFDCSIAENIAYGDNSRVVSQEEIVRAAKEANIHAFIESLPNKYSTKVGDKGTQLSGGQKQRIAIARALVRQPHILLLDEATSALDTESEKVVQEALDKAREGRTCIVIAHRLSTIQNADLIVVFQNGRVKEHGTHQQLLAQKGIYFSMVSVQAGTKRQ
T3 sequence (P11712 whole entry): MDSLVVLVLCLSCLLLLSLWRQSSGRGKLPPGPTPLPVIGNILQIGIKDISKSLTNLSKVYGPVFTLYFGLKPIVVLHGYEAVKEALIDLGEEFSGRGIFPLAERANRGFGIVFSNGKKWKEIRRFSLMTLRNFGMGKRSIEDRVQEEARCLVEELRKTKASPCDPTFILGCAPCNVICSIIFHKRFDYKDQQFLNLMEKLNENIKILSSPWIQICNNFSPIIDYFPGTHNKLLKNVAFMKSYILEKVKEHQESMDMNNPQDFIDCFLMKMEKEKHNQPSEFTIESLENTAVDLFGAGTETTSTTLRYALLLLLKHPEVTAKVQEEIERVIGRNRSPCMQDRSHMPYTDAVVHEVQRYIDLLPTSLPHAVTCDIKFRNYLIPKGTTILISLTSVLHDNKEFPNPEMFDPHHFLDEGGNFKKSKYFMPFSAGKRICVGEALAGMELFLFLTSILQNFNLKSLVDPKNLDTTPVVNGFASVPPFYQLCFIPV
T2 sequence (P10635 whole entry): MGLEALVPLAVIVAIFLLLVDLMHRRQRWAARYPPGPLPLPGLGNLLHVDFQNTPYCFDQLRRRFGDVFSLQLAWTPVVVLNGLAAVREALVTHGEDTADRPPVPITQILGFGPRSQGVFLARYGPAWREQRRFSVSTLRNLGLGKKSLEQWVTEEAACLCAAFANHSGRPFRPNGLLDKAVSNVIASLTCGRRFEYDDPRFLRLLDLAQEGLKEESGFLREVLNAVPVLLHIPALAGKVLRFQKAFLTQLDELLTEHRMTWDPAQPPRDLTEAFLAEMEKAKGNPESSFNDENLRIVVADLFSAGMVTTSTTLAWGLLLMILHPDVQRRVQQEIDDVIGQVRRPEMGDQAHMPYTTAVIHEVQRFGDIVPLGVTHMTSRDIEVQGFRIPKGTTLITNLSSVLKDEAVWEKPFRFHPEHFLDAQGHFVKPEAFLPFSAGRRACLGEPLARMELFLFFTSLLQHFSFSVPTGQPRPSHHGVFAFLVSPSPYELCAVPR

## C[C@]12CC[C@H](OS(=O)(=O)O)CC1=CC[C@@H]1[C@@H]2CC[C@]2(C)C(c3ccc[n+]([O-])c3)=CC[C@@H]12 [N-oxide abiraterone sulphate]
[1]
  activity of metabolite: inactive
  share of exposure as circulating metabolite in human plasma: about 43%

## C[C@]12CC[C@H](O)CC1=CC[C@@H]1[C@@H]2CC[C@]2(C)C(c3cccnc3)=CC[C@@H]12 [abiraterone]
1,000 mg daily, patients with metastatic CRPC
  steady-state Cmax (mean±SD): 226 ± 178 ng/mL
Dose range of 250 mg to 1,000 mg
  dose proportionality: No major deviation from dose proportionality
From 1,000 to 2,000 mg
  increase in the mean AUC when dose doubled: 8%
human, in vivo
  accumulation: steady-state AUC compared to a single 1,000 mg dose: 2 fold
Oral abiraterone acetate, patients with metastatic CRPC
  median time to reach maximum plasma abiraterone concentrations: 2 h
[2]; [10]
  AUC0-∞, fold higher vs overnight fasting: ~10 fold
  Cmax, fold higher vs overnight fasting: approximately 17 fold
[2]; [11]
  AUC0-∞, fold higher vs overnight fasting: ~5 fold
  Cmax, fold higher vs overnight fasting: approximately 7 fold
[2]; patients with metastatic CRPC, repeated dosing with high-fat meals for 7 days
  systemic exposure increase vs dosing away from meals: approximately 2 fold
[2]; patients with metastatic CRPC, repeated dosing with low-fat meals for 7 days
  systemic exposure vs dosing away from meals: similar
[2]; single dose 1 hour before a medium fat meal (25% fat, 491 calories)
  AUC0-∞, fold higher vs overnight fasting: ~1.6 fold
[2]; single dose 2 hours after a medium fat meal (25% fat, 491 calories)
  AUC0-∞, fold higher vs overnight fasting: approximately 7 fold
[3]; mild hepatic impairment
  mean half-life: approximately 18 hours
[3]; moderate hepatic impairment
  mean half-life: approximately 19 hours
[3]; moderate hepatic impairment (Child-Pugh Class B), single oral 1,000 mg dose
  systemic exposure (AUC) increase vs normal hepatic function: ~3.6 fold
[3]; severe hepatic impairment (Child-Pugh Class C)
  systemic exposure (AUC) increase vs normal hepatic function: approximately 7 fold
[4]
  systemic exposure vs normal renal function: did not increase
CYP3A4 [5]
  substrate of CYP3A4: substrate
CYP2D6
  inhibition of CYP2D6: potential to inhibit
CYP2C9
  inhibition of CYP2C9: to a lesser extent
P-glycoprotein (P-gp)
  substrate of P-glycoprotein (P-gp): not substrates
OATP1B1
  inhibition of hepatic uptake transporter OATP1B1: inhibit
[6]
  bound to human plasma proteins: > 99%
[7]
  clastogenicity in vitro: not mutagenic in an in vitro microbial mutagenesis (Ames) assay or clastogenic
[8]
  clastogenicity in vivo: not mutagenic in an in vitro microbial mutagenesis (Ames) assay or clastogenic
[1]; oral 14C-abiraterone acetate
  compound present in feces, share of the administered dose: ~22%
CYP3A4 [9]
  effect of ketoconazole co-administration on pharmacokinetics: no clinically meaningful effect
CYP3A4 [9]; rifampin 600 mg daily for 6 days, then single 1,000 mg abiraterone acetate
  decrease of exposure (mean plasma AUC∞) with rifampin: 55%
CYP1A2
  inhibition of CYP1A2: potential to inhibit

## abiraterone sulphate
[1]
  activity of metabolite: inactive
  share of exposure as circulating metabolite in human plasma: about 43%
